Structures can show the parent of a compound that is named as a salt.
Columns and labels:
[1] = target: T1, Glucose oxidase (GOD) (E.C.1.1.3.4.) (Aspergillus niger, UniProt P13006); test: Cyclic voltammetry of GOD-graphite/paraffin pasta electrode containing the mediator; assay type: biochemical; conditions: Ag/AgCl ref.
Method: • 1) A paste containing GOD-immobilized graphite, paraffin and mediator is prepared. If the mediator has a big solubility in paraffin then 10 mg of mediator is used per ml of paraffin. If the mediator has a little solubility in paraffin then 50 mg of crystals are added per ml of paraffin in order to obtain a homogeneous mixture before graphite is added. The paste obtained is filled into sticks. • 2) The activity of the paste is determined in a cyclic voltametri equipment where the current is measured as a function of the potential (CV sweep). Five concentrations of glucose are measured, i.e., 0, 5, 10, 15 and 20 mM. Based upon the results obtained, the following is evaluated: • a) whether the mediator can be oxidized and reduced by the graphite electrode, • b) whether the mediator can be reduced of GOD, • c) the optimal potential for the electorde to be used, • d) whether a lineary response as a function of the concentration of glucose can be obtained using the concentration of mediator in question, • e) whether the concentration of the mediator can be optimized. • 3) The response as a function of time at the optimal potential is to be measured. The time interval within which the response represents a stable response for the concentration of glucose is to be evaluated. • 4) The stability of the mediator in the paste question is determined.
(§1) Glucose oxidase (GOD) (E.C.1.1.3.4.) was immobilized on graphite particles by the following procedure: 10 g of graphite was oxidized in air at 100°C for 24 hours. The surface oxidized graphite particles were activated with 500 mg of 1-cyclohexyl-3-(2-morpholinoethyl)carbodiimide metho-p-toluenesulfonate in 100 ml of 0.1 M acetate buffer (pH 4.76) for 2 hours, then washed with distilled water until an approximately neutral pH value and dried. The activated graphite was mixed with 30 ml of 0.01 phosphate buffer (pH 7.3) containing 80,000 IU GOD and 4% glutaraldehyde for 16 hours at 4°C, dried and sieved through a 48 mesh to obtain uniform particles.
(§2) 1 g of paraffin oil containing 5% Methylene green (4-nitro-3,7-bis(dimethylamino)phenothiazine) was mixed carefully with 2 g of GOD modified graphite to a uniform pasta.
(§3) The pasta was filled into a plastic rod in which it was possible to cut a thin cross-sectional slice to introduce a new well-defined electrode area. Before each measurement, the electrode surface was renewed. The working electrode area used was 3 mm^2.
In the study of the working electrode, an Ag auxiliary electrode and an Ag/AgCl reference electrode was used. In a cyclic voltammogram, a catalytic current from the reoxidation of the mediator was observed beginning at -50 mV and being stable between 50 and 400 mV. The current was proportional to the concentration of glucose used.
(§4) Data in the table are obtained using the same procedure as in Example 1.

[2] = Redox potential of the mediator at GC electrode; assay type: physicochemical; conditions: Ag/AgCl ref.; in mV (unit assumed)
From the text: as §4

[3] = target: T1, Glucose oxidase (GOD) (E.C.1.1.3.4.); test: Chronoamperometry of GOD-graphite/paraffin pasta electrode containing the mediator (glucose measurement); assay type: biochemical; conditions: for Working potential: Ag/AgCl ref.; for SD% of 100 measurement / Signal to noice ration: at 7mM glucose; for Linearity: glucose
Method: as §1, §2, §3
Chronoamperometry was preformed at 100 mV using the integrated current from 30 to 60 seconds after applying the potential. A linearity up to 40 mM glucose was obtained. The current was 500 nA/(sec*mM). The signal was not affected by the oxygen concentration in the solution. Reference pasta without Methylene green was not affected by different glucose concentrations.
as §4

[4] = Stability test of pasta rods with selected mediators stored at different temperatures; assay type: physicochemical; set-up: unit not given here
Method: The stability of a paste with a certain mediator can be determined using the following method:
The mediator is dissolved or mixed with paraffin and, thereafter, the enzyme coupled to graphite is added. The mixture is homogenized giving a paste. This paste is filled into electrode holders of plast giving so-called sticks. These sticks are tested using 0 and 10 mM glucose standards in order to characterize the activity of these sticks in relation to glucose. Thereafter, the paste containing sticks are stored at a constant temperature, for example, 4, 20, 35 and 54°C. After a certain period of time, for example 1 month, the sticks are tested using the 0 and 10 mM glucose standards and the activities measured are compared with the activity measured at originally.
Data are obtained using the same basis procedure as in Example 1. Rods with selected mediators were stored at different temperature to accelerate processes which could give new analytical performance.

T1 sequence (P13006 17-605, species assumed): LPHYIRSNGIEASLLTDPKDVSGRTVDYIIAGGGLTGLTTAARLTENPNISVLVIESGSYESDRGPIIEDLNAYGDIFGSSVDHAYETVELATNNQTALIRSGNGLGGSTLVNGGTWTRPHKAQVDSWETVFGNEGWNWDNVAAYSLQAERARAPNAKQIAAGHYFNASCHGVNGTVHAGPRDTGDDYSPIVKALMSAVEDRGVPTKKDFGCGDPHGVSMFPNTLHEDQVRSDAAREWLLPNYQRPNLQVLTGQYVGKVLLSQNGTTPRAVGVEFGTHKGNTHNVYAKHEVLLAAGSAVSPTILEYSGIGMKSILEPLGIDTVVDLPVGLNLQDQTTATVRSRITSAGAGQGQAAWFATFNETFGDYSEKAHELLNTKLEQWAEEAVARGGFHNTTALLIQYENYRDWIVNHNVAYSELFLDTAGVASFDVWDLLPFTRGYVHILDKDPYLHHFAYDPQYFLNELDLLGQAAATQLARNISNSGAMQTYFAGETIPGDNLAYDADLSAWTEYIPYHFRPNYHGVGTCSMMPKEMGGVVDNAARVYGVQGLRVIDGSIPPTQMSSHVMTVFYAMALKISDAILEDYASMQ

c1cc(N2CCOCC2)ccc1N1CCOCC1 [BMP, 1,4-dimorpholinobenzene]
Catalytic interval beginning at [1]: 50 mV | Redoxpotential at GCElectrode [2]: 246 | Working potential [3]: 200 | SD% of 100 measurement [3]: 6.5% | Signal to noice ration [3]: 5.6 | Linearity [3]: 20 mM | activity of rod in stability test ([4]; 4°C, listed as a, Time 0): 20.2 | activity of rod in stability test ([4]; 4°C, listed as a, Time 72): 21.2 | activity of rod in stability test ([4]; 4°C, listed as b, Time 0): 21.3 | activity of rod in stability test ([4]; 4°C, listed as b, Time 72): 19.3 | activity of rod in stability test ([4]; 20°C, listed as a, Time 0): 18.5 | activity of rod in stability test ([4]; 20°C, listed as a, Time 72): 21.4 | activity of rod in stability test ([4]; 20°C, listed as b, Time 0): 20.5 | activity of rod in stability test ([4]; 20°C, listed as b, Time 72): 23.3 | activity of rod in stability test ([4]; 35°C, listed as a, Time 0): 20.0 | activity of rod in stability test ([4]; 35°C, listed as a, Time 72): 18.0 | activity of rod in stability test ([4]; 35°C, listed as b, Time 0): 16.7 | activity of rod in stability test ([4]; 35°C, listed as b, Time 72): 20.3 | activity of rod in stability test ([4]; 54°C, listed as a, Time 0): 18.4 | activity of rod in stability test ([4]; 54°C, listed as a, Time 72): 15.0 | activity of rod in stability test ([4]; 54°C, listed as b, Time 0): 20.5 | activity of rod in stability test ([4]; 54°C, listed as b, Time 72): 14.6

c1cc(N2CCCCC2)ccc1N1CCCCC1 [BPP, 1,4-dipiperidinobenzene]
Catalytic interval beginning at [1]: 0 mV | Redoxpotential at GCElectrode [2]: 141 | Working potential [3]: 150 | SD% of 100 measurement [3]: 3.5% | Signal to noice ration [3]: 4.7 | Linearity [3]: 20 mM | activity of rod in stability test ([4]; 4°C, listed as a, Time 0): 12.3 | activity of rod in stability test ([4]; 4°C, listed as a, Time 78): 12.4 | activity of rod in stability test ([4]; 4°C, listed as b, Time 0): 11.1 | activity of rod in stability test ([4]; 4°C, listed as b, Time 78): 13.7 | activity of rod in stability test ([4]; 20°C, listed as a, Time 0): 10.0 | activity of rod in stability test ([4]; 20°C, listed as a, Time 78): 11.0 | activity of rod in stability test ([4]; 20°C, listed as b, Time 0): 10.5 | activity of rod in stability test ([4]; 20°C, listed as b, Time 78): 11.1 | activity of rod in stability test ([4]; 35°C, listed as a, Time 0): 9.1 | activity of rod in stability test ([4]; 35°C, listed as a, Time 78): 8.7 | activity of rod in stability test ([4]; 35°C, listed as b, Time 0): 10.6 | activity of rod in stability test ([4]; 35°C, listed as b, Time 78): 10.4 | activity of rod in stability test ([4]; 54°C, listed as a, Time 0): 11.1 | activity of rod in stability test ([4]; 54°C, listed as a, Time 78): 6.7 | activity of rod in stability test ([4]; 54°C, listed as b, Time 0): 10.3 | activity of rod in stability test ([4]; 54°C, listed as b, Time 78): 5.6

C[N+](C)=c1ccc2nc3c(ccc4ccccc43)oc-2c1 [MB, 7-dimethylamino-1,2-benzophenoxazinium salts]
Catalytic interval beginning at [1]: -50 mV | Redoxpotential at GCElectrode [2]: -175 | Working potential [3]: 100 | SD% of 100 measurement [3]: 6.5% | Signal to noice ration [3]: 4.8 | Linearity [3]: 40 mM

CN(C)c1ccc(N2CCOCC2)cc1 [MDMP, 1-dimethylamino-4-morpholinobenzene]
Catalytic interval beginning at [1]: -20 mV | Redoxpotential at GCElectrode [2]: 124 | Working potential [3]: 100 | SD% of 100 measurement [3]: 4.5% | Signal to noice ration [3]: 8.3 | Linearity [3]: 20 mM | activity of rod in stability test ([4]; 4°C, listed as a, Time 0): 17.2 | activity of rod in stability test ([4]; 4°C, listed as a, Time 72): 16.9 | activity of rod in stability test ([4]; 4°C, listed as b, Time 0): 16.2 | activity of rod in stability test ([4]; 4°C, listed as b, Time 72): 18.1 | activity of rod in stability test ([4]; 20°C, listed as a, Time 0): 16.4 | activity of rod in stability test ([4]; 20°C, listed as a, Time 72): 17.4 | activity of rod in stability test ([4]; 20°C, listed as b, Time 0): 16.0 | activity of rod in stability test ([4]; 20°C, listed as b, Time 72): 15.4 | activity of rod in stability test ([4]; 35°C, listed as a, Time 0): 15.4 | activity of rod in stability test ([4]; 35°C, listed as a, Time 72): 15.7 | activity of rod in stability test ([4]; 35°C, listed as b, Time 0): 13.4 | activity of rod in stability test ([4]; 35°C, listed as b, Time 72): 14.5 | activity of rod in stability test ([4]; 54°C, listed as a, Time 0): 17.4 | activity of rod in stability test ([4]; 54°C, listed as a, Time 72): 6.9 | activity of rod in stability test ([4]; 54°C, listed as b, Time 0): 14.4 | activity of rod in stability test ([4]; 54°C, listed as b, Time 72): 8.5

c1cc(N2CCOCC2)ccc1N1CCCCC1 [MPP, 1-morpholino-4-piperidinobenzene]
Catalytic interval beginning at [1]: 20 mV | Redoxpotential at GCElectrode [2]: 166 | Working potential [3]: 100 | SD% of 100 measurement [3]: 4.0% | Signal to noice ration [3]: 10 | Linearity [3]: 20 mM | activity of rod in stability test ([4]; 4°C, listed as a, Time 0): 11.7 | activity of rod in stability test ([4]; 4°C, listed as a, Time 70): 8.8 | activity of rod in stability test ([4]; 4°C, listed as b, Time 0): 9.2 | activity of rod in stability test ([4]; 4°C, listed as b, Time 70): 10.5 | activity of rod in stability test ([4]; 20°C, listed as a, Time 0): 10.0 | activity of rod in stability test ([4]; 20°C, listed as a, Time 70): 11.9 | activity of rod in stability test ([4]; 20°C, listed as b, Time 0): 7.2 | activity of rod in stability test ([4]; 20°C, listed as b, Time 70): 9.3 | activity of rod in stability test ([4]; 35°C, listed as a, Time 0): 7.0 | activity of rod in stability test ([4]; 35°C, listed as a, Time 70): 9.0 | activity of rod in stability test ([4]; 35°C, listed as b, Time 0): 9.0 | activity of rod in stability test ([4]; 35°C, listed as b, Time 70): 9.5 | activity of rod in stability test ([4]; 54°C, listed as a, Time 0): 12.5 | activity of rod in stability test ([4]; 54°C, listed as a, Time 70): 4.1 | activity of rod in stability test ([4]; 54°C, listed as b, Time 0): 11.3 | activity of rod in stability test ([4]; 54°C, listed as b, Time 70): 4.7

— EP0552223B1, “USE OF BENZENE DERIVATIVES AS CHARGE TRANSFER MEDIATORS” (NOVO NORDISK A/S, priority 1990, dated 1992)
